Test results as given in US4464467A, “Antitumor antibiotics produced by new streptomyces” (Bristol-Myers Company, priority 1982, dated 1984).

How the values were obtained:
[1] = tested on: lymphatic leukemia P388; assay: Antitumor activity against leukemia P388, second experiment (Table 10); type: in vivo, male BDF1 mice; details: for Survivors Day 5 / Survivors Day 22 / Average weight change / MST % T/C: QD 1→9; for antitumor activity against leukemia P388 (in words): second experiment, ip, once daily for 9 days, comparative
Description: In this experiment lymphatic leukemia P388 was implanted intraperitoneally into male BDF1 mice at an inoculum size of 10^6 cells per mouse. Test compounds were dissolved in 0.9% saline containing 10% dimethylsulfoxide. Graded doses of test compounds were administered to mice intraperitoneally 24 hours after the tumor implantation, and the treatment was continued once daily for 9 days.
Tumor inoculum: 10^6 ascites cells implanted
Treatment: QD 1→9, i.p.
Evaluation: MST = median survival
Effect: % T/C = (MST treated/MST control) ×
Criteria: % T/C ≥125 considered as significant antitumor activity

[2] = tested on: P388 mouse leukemia; assay: P388 mouse leukemia test (comparison of 2-hydroxy isomers); type: in vivo; details: β-hydroxy versus α-hydroxy isomers
From the text: The diastereoisomers of BBM-2040A and B of the present invention have been disclosed in Symposium Papers of the 24th Symposium on the Chemistry of Natural Products (Osaka, Japan, Oct. 13-16, 1981): Paper #72, pp. 552-559. Compounds 31b and 32b in this paper have the structures [drawing 2] and may be differentiated from BBM-2040A and B of the present invention in the configuration of the C-2 hydroxy group, i.e. BBM-2040A and B have the C-2 hydroxy group in the α-configuration while the corresponding 31b and 32b diastereoisomers have the β-configuration at the C-2 hydroxy group.

[3] = Acute toxicity, single intraperitoneal administration; parameters: species or system mice (ddY strain); details: mouse, in vivo, ip, ddY mice
Description: The intraperitoneal LD50 of neothramycin has been reported to be 20-30 mg/kg.

[4] = tested on: Streptococcus pyogenes, Micrococcus luteus, Micrococcus flavus and Mycobacterium strains; assay: Antibacterial activity, agar dilution; type: cell-based; details: against Streptococcus pyogenes
Description: The minimum inhibitory concentration (MIC) of BBM-2040 was determined for a variety of gram-positive, gram-negative and acid-fast bacteria by the serial two-fold agar dilution method. Nutrient agar medium was used for gram-positive and gram-negative organisms and No. 1001 medium (3% glycerol, 0.3% sodium L-glutamate, 0.2% peptone, 0.31% Na2 HPO4, 0.1% KH2 PO4, 0.005% ammonium citrate, 0.001% MgSO4 and 1.5% agar) for acid-fast organisms.

[5] = Solubility
[6] = tested on: lymphocytic leukemia P388; assay: Antitumor activity against leukemia P388 in mice (Table 9); type: in vivo, mice (BDF1 strain); details: first experiment; ip, qd 1→9; comparative
Description: The antitumor activity of BBM-2040A and B was determined in mice (BDF1 strain) against lymphocytic leukemia P388. Each mouse was inoculated intraperitoneally with 10^6 cells of tumor. Graded doses of test compounds were administered to mice intraperitoneally 24 hours after the tumor implantation. The treatments were given once daily for 9 days (qd 1→9 schedule). Neothramycin was comparatively tested as a reference compound.
*ratio of median survival time of test and control animals

[7] = Stability in solutions
[8] = in benzene, chloroform and n-hexane
[9] = in ethyl acetate, acetone and water
[10] = in methanol, ethanol, n-butanol and pyridine

SMILES | Survivors Day 5 ([1]; 0.1 mg/kg/day ip) | Survivors Day 22 ([1]; 0.1 mg/kg/day ip) | Survivors Day 5 ([1]; 0.3 mg/kg/day ip) | Survivors Day 22 ([1]; 0.3 mg/kg/day ip) | Survivors Day 5 ([1]; 1 mg/kg/day ip) | Survivors Day 22 ([1]; 1 mg/kg/day ip) | antitumor activity in the P388 mouse leukemia test (in words) [2] | LD50 [3] [mg/kg] | antibacterial activity (in words) [4] | MST % T/C ([1]; 0.1 mg/kg/day ip) [%] | MST % T/C ([1]; 0.3 mg/kg/day ip) [%] | MST % T/C ([1]; 1 mg/kg/day ip) [%] | MST % T/C ([1]; 3 mg/kg/day ip) [%] | Survivors Day 5 ([1]; 3 mg/kg/day ip) | Survivors Day 22 ([1]; 3 mg/kg/day ip) | antitumor activity against leukemia P388 (in words) [1] | solubility [5, 8] | solubility [5, 9] | solubility [5, 10] | antitumor activity against leukemia P388 (in words) [6] | other results
COc1cc2c(cc1O)N[C@H](OC)[C@@H]1C[C@@H](O)CN1C2=O [2β-Hydroxy epimer of BBM-2040 A] | 6/6 | 0/6 | 6/6 | 0/6 | 6/6 | 0/6 | – | – | – | – | – | – | – | – | – | – | – | – | – | – | Survivors Day 5 ([1]; 0.03 mg/kg/day ip): 6/6; Survivors Day 22 ([1]; 0.03 mg/kg/day ip): 0/6
COc1cc2c(cc1O)N[C@H](OC)[C@@H]1C[C@@H](O)CN1C2=O [31b, reference compound] | – | – | – | – | – | – | essentially devoid of antitumor activity | – | – | – | – | – | – | – | – | – | – | – | – | – | –
COc1cc2c(cc1O)N=C[C@@H]1C[C@@H](O)CN1C2=O [32b, reference compound] | – | – | – | – | – | – | essentially devoid of antitumor activity | – | – | – | – | – | – | – | – | – | – | – | – | – | –
COc1cc2c(cc1O)N[C@H](OC)[C@@H]1C[C@H](O)CN1C2=O [BBM-2040A, (2S, 11aS)-5,10,11,11a-tetrahydro-2,8-dihydroxy-7,11-dimethoxy-5-oxo-1H-pyrrolo(2,1-c) (1,4)benzodiazepine] | 6/6 | 0/6 | 6/6 | 0/6 | 6/6 | 0/6 | marked activity | 34 | weak antibacterial activity | 100 | 117 | 133 | 142 | 6/6 | 0/6 | similarly active | practically insoluble | slightly soluble | readily soluble | similarly active | Average weight change ([1]; 0.1 mg/kg/day ip): +1.5 g; Average weight change ([1]; 0.3 mg/kg/day ip): +1.3 g; MST % T/C ([1]; 10 mg/kg/day ip): 163%; Survivors Day 5 ([1]; 10 mg/kg/day ip): 6/6; Survivors Day 22 ([1]; 10 mg/kg/day ip): 1/6
COc1cc2c(cc1O)N=C[C@@H]1C[C@H](O)CN1C2=O [BBM-2040B] | – | – | – | – | – | – | marked activity | 57 | weak antibacterial activity | – | – | – | – | – | – | – | practically insoluble | slightly soluble | readily soluble | somewhat less active than BBM-2040A | stability in solutions [7]: relatively unstable
COc1cc2c(cc1O)N=CC1CCC(O)N1C2=O (stereo not drawn) [Neothramycin] | 6/6 | 0/6 | 6/6 | 0/6 | 6/6 | 0/6 | – | – | – | 108 | 121 | 142 | 146 | 6/6 | 0/6 | similarly active | – | – | – | similarly active | –
